# Results from patent US20210380623A1, “PRODRUG GALACTOSIDE INHIBITOR OF GALECTINS” (GALECTO BIOTECH AB, priority 2018, published 2021).
# How the values were obtained:
# aqueous solubility = type: physicochemical; settings: water
# Galectin-3 = Galectin-3 (Homo sapiens, UniProt P17931); experiment: fluorescence anisotropy assay, inhibition of galectin / fluorescein tagged saccharide probe interaction; type: binding; settings: for Kd: fluorescence anisotropy; for affinity towards the corresponding galectin (in words): pro-drug itself
# Galectin-3, sequence (P17931 whole entry): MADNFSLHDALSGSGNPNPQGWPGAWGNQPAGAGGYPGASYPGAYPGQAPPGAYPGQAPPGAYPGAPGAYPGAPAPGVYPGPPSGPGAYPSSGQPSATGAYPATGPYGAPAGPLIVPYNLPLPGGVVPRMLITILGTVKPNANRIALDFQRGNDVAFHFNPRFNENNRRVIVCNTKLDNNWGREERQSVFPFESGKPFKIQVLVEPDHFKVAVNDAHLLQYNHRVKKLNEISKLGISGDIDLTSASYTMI
# galectins = settings: cited from earlier work
# [1] = mouse PK experiments, plasma exposure of Ref 1 after p.o. administration; type: in vivo; settings: for exposure in mice PK after per oral administration: mouse, p.o., 20, 40, 80 and 160 mg/kg, plasma exposure of Ref 1
solubility (aqueous solubility) [µg/mL],Kd (Galectin-3) [µM],Structure (SMILES),other results
800,0.007,"O=P(O)(O)OCO[C@@H]1[C@@H](n2cc(-c3cc(F)c(Cl)c(F)c3)nn2)[C@@H](O)[C@@H](CO)O[C@@H]1Sc1cncc(Br)c1 [Example 9, 5-Bromopyridin-3-yl 3-[4-(4-chloro-3,5-difluorophenyl)-1H-1,2,3-triazol-1-yl]-3-deoxy-2-O-[(phosphonooxy)methyl]-1-thio-α-D-galactopyranoside]",–
37,–,"OC[C@H]1O[C@H](Sc2ccc(Cl)c(Cl)c2)[C@H](O)[C@@H](n2cc(-c3cc(F)c(F)c(F)c3)nn2)[C@H]1O [Ref 2, 3,4-Dichlorophenyl 3-deoxy-3-[4-(3,4,5-trifluorophenyl)-1H-1,2,3-triazol-1-yl]-1-thio-α-D-galactopyranoside, reference compound]",–
–,0.014,"O=S(=O)(O)OC1C(n2cc(-c3cc(F)c(F)c(F)c3)nn2)[C@@H](O)C(CO)O[C@@H]1Sc1ccc(Cl)c(Cl)c1 (stereo partly drawn) [Example 4, 3,4-Dichlorphenyl 3-Deoxy-3-[4-(3,4,5-trifluorophenyl)-1H-1,2,3-triazol-1-yl]-2-O-sulfo-1-thio-α-D-galactopyranoside]",–
8500,35,"O=P(O)(O)OC[C@H]1O[C@H](Sc2cncc(Br)c2)[C@H](O)[C@@H](n2cc(-c3cc(F)c(F)c(F)c3)nn2)[C@H]1O [Example 1, 5-Bromopyridin-3-yl 3-deoxy-3-[4-(3,4,5-trifluorophenyl)-1H-1,2,3-triazol-1-yl]-6-O-phospho-1-thio-α-D-galactopyranoside]",affinity towards the corresponding galectin (in words) (Galectin-3): low
7,–,"OC[C@H]1O[C@H](Sc2cncc(Br)c2)[C@H](O)[C@@H](n2cc(-c3cc(F)c(Cl)c(F)c3)nn2)[C@H]1O [Ref 3, 5-Bromopyridin-3-yl 3-deoxy-3-[4-(4-chloro-3,5-difluorophenyl)-1H-1,2,3-triazol-1-yl]-1-thio-α-D-galactopyranoside, reference compound]",–
7,–,"OC[C@H]1O[C@H](Sc2cncc(Br)c2)[C@H](O)[C@@H](n2cc(-c3cc(F)c(F)c(F)c3)nn2)[C@H]1O [Ref 1, 5-Bromopyridin-3-yl 3-deoxy-3-[4-(3,4,5-trifluorophenyl)-1H-1,2,3-triazol-1-yl]-1-thio-α-D-galactopyranoside, reference compound]","oral availability ([1]; mouse PK, some formulations, dosed above 10 mg/kg): limited oral availability"
> 10000,15,"O=P(O)(O)OCOC[C@H]1O[C@H](Sc2cncc(Br)c2)[C@H](O)[C@@H](n2cc(-c3cc(F)c(F)c(F)c3)nn2)[C@H]1O [Example 7, 5-Bromopyridin-3-yl 3-deoxy-3-[4-(3,4,5-trifluorophenyl)-1H-1,2,3-triazol-1-yl]-6-O-[(phosphonooxy)methyl]-1-thio-α-D-galactopyranoside]",exposure in mice PK after per oral administration [1]: dose correlated exposure; affinity towards the corresponding galectin (in words) (Galectin-3): low
9800,0.006,"O=P(O)(O)O[C@@H]1[C@@H](n2cc(-c3cc(F)c(F)c(F)c3)nn2)[C@@H](O)[C@@H](CO)O[C@@H]1Sc1cncc(Br)c1 [Example 2, 5-Bromopyridin-3-yl 3-deoxy-3-[4-(3,4,5-trifluorophenyl)-1H-1,2,3-triazol-1-yl]-2-O-phospho-1-thio-α-D-galactopyranoside]",–

# The remaining lines, values behind:
Structure (SMILES),solubility (aqueous solubility) [µg/mL],Kd (Galectin-3) [µM],other results
OC[C@H]1O[C@@H](O[C@H]2[C@H](O)[C@@H](O)C(O)O[C@@H]2CO)[C@H](O)[C@@H](O)[C@H]1O (stereo partly shown) [lactose],–,–,"Kd (galectins; read-out: Kd, all galectins): 500 to 1000 µM"
"O=P(O)(O)OCO[C@@H]1[C@@H](n2cc(-c3cc(F)c(F)c(F)c3)nn2)[C@@H](O)[C@@H](CO)O[C@@H]1Sc1cncc(Br)c1 [Example 8, 5-Bromopyridin-3-yl 3-deoxy-3-[4-(3,4,5-trifluorophenyl)-1H-1,2,3-triazol-1-yl]-2-O-[(phosphonooxy)methyl]-1-thio-α-D-galactopyranoside]",> 10000,0.01,exposure in mice PK after per oral administration [1]: dose correlated exposure
O=C[C@H](O)[C@@H](O)[C@@H](O)[C@H](O)CO [D-galactose],–,–,"affinity, times lower than lactose (galectins; relative to lactose): 50-100 times"
"O=S(=O)(O)OC[C@H]1O[C@H](Sc2cncc(Br)c2)[C@H](O)[C@@H](n2cc(-c3cc(F)c(F)c(F)c3)nn2)[C@H]1O [Example 6, 5-Bromopyridin-3-yl 3-Deoxy-3-[4-(3,4,5-trifluorophenyl)-1H-1,2,3-triazol-1-yl]-6-O-sulfo-1-thio-α-D-galactopyranoside]",9600,27,–
"O=S(=O)(O)O[C@@H]1[C@@H](n2cc(-c3cc(F)c(F)c(F)c3)nn2)[C@@H](O)[C@@H](CO)O[C@@H]1Sc1cncc(Br)c1 [Example 5, 5-Bromopyridin-3-yl 3-Deoxy-3-[4-(3,4,5-trifluorophenyl)-1H-1,2,3-triazol-1-yl]-2-O-sulfo-1-thio-α-D-galactopyranoside]",–,0.004,–
"O=P(O)(O)O[C@@H]1[C@@H](n2cc(-c3cc(F)c(F)c(F)c3)nn2)[C@@H](O)[C@@H](CO)O[C@@H]1Sc1ccc(Cl)c(Cl)c1 [Example 3, 3,4-Dichlorophenyl 3-deoxy-3-[4-(3,4,5-trifluorophenyl)-1H-1,2,3-triazol-1-yl]-2-O-phospho-1-thio-α-D-galactopyranoside]",–,0.007,–
